Measured values: patent publication US20250129033A1, “METAP2 INHIBITORS AND USES THEREOF” (Yissum Research Development Company of the Hebrew …, priority 2022, published 2025)

Tests used:
[1] = test system: A375 xenograft; assay: A375 xenograft in mice; format: in vivo, Foxn1 nu mice; conditions: for inhibition in tumor growth: 15 mg/kg and 30 mg/kg I.P. q.o.d
Procedure: Animal studies were approved by the Institutional Animal Care and Use Committee of the Faculty of Medicine of the Hebrew University and followed the guidelines for use of laboratory animals. 6-8-week-old male Foxn1 nu mice were S.C. injected with 5×10^6 A375 and MDA-MB-231 cells/mouse. Mice were I.P treated with 30 mg/kg and 15 mg/kg AD-3281 every other day and with 15 mg/kg, 7.5 mg/kg AD-3281 every other day in mice injected with A375 and MDA-MB-231 respectively. Tumor growth was measured with a digital caliper. At the end of the experiments after 18 or 15 days, mice were sacrificed, and tumors were surgically removed, weighed, volume was measured and histology stating was performed. AD-3281 was dissolved in 10:10:80 […]:ethanol:saline.
Animal studies were approved by the Institutional Animal Care and Use Committee of the Faculty of Medicine of the Hebrew University and followed the guidelines for use of laboratory animals. 6-8-week-old male Foxn1 nu mice were S.C. injected with 5×10^6 A375 or MDA-MB-231 cells/mouse. Mice were I.P treated with 30 mg/kg and 15 mg/kg AD-3281 q.o.d and with 15 mg/kg, 7.5 mg/kg AD-3281 (dissolved in 10:10:80 Cremophor EL: Ethanol: Saline) q.o.d in mice injected with A375 and MDA-MB-231 respectively. Tumor growth was measured with a digital caliper. At the end of the experiments after 18 or 15 days, mice were sacrificed, and tumors were surgically removed, weighed, volume was measured and histology stating was performed. Tumor tissues were resected at the end point and analyzed by immunohistology using standard protocol for paraffin fixed sections using anti-Ki-67 (Abcam, catalog number ab15580), anti-CD31 (Abcam, catalog number ab28364), anti-MetAp-2 (Ab134124, Abcam, Cambridge, UK) (Figure S.

[2] = molecular target: T1, recombinant human methionine aminopeptidase 2 (Homo sapiens, UniProt P50579); assay: Enzymatic activity assay on recombinant human MetAp2 (L-Met-AMC); format: biochemical; conditions: 2.5 μM, over the course of 1 h, vs untreated control
T1 construct: purchased bio-techne 3795-ZN
Procedure: The enzymatic assay was performed using 5 μg protein per sample as described previously. To test the inhibitory effect of AD-3281, at the same conditions, AD-3281 was also added to 0.33 μg recombinant human methionine aminopeptidase 2 obtained from bio-techne (USA, 3795-ZN), samples were incubated with the inhibitor for 15 min at RT before adding the substrate. The reaction was started by adding 250 μM L-Met-AMC as a substrate. An increase of fluorescence, due to substrate degradation during the enzymatic assay, was measured every 20 seconds for 1 h and 30 min at 37° C. using a plate reader (Wallac 1420 VICTOR plate reader, Perkin-Elmer Life Sciences, USA). The assay was carried out on a 96-well plate on ice and it was performed in an assay buffer (pH 7.5) containing 50 mM HEPES, 0.1 mM CoCl2, 100 mM NaCl and 1 mg/mL PEG 6000, in a final volume of 100 μL.
A375 and MDA-MB-231 were sub-cultivated using trypsin, then centrifuged and counted. […] The protein content of the supernatant was determined according to the Bradford protein assay using BSA as the standard. […] An increase of fluorescence, due to substrate degradation during the enzymatic assay, was measured every 20 seconds for 1 h and 30 min at 37° C. using a plate reader (Wallac 1420 VICTOR plate reader, Perkin-Elmer Life Sciences, USA). […]

T1 sequence (P50579 whole entry): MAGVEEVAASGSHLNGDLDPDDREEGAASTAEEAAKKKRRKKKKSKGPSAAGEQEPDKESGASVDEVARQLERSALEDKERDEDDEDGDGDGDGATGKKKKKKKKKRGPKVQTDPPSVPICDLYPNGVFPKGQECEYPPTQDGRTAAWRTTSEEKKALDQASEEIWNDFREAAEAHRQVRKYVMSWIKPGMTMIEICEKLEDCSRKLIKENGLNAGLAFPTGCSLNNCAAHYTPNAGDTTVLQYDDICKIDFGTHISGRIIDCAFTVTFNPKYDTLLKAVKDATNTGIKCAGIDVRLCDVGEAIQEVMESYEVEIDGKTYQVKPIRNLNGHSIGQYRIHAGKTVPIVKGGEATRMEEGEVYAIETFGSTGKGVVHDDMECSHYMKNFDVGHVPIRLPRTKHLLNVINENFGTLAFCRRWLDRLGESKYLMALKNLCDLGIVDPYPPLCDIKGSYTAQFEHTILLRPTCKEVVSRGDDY

inhibition of rhMetAp2 enzymatic activity [2]: 95%
Compound: COC1C(OC(=O)CC23CC4CC(CC(C4)C2)C3)CCC2(CO2)C1C1(C)OC1CC=C(C)C (centres unmarked) [AD-3281, Fumagillol-1-adamantylacetate]
inhibition in tumor growth ([1]; after 8 days, vs control): ~70% | inhibition in tumor growth ([1]; day 18): 99% | cellular proliferation in tumors (Ki-67) ([1]; immunofluorescent staining of extracted tumors): less cellular proliferation than untreated tumors | mean weight of extracted tumors ([1]; treated groups, day 18 (untreated 1 g)): ~0.1 g
